{"source": "patent US20150065440A1", "about": "(Progen Pharmaceuticals Limited, priority 2007, published 2015)", "type": "in vivo, Sprague-Dawley rats", "settings": "rat, in vivo, iv", "description": "Adult male Sprague-Dawley (SD) rats (approx 300 g) were used for the experiment. Femoral artery cannulae was implanted and exteriorised following isoflurane anaesthesia. Jugular vein artery cannulae was implanted and exteriorized. […]. Blood samples (˜325 μL) were collected into sample tubes containing the anticoagulant sodium citrate from femoral artery catheter pre-dose and at 5, 20 minutes and 2, 5, 8, 12, 24, and 48 hours post-dose, and kept at reduced temperature (approx 4° C.) until centrifuged. Blood samples were centrifuged, plasma separated and 50 μL aliquot of the plasma transferred to a scintillation vial for counting. At the end of the experimental period animals were euthanased via a lethal overdose of pentobarbital. The level of radioactivity in the plasma was measured following mixing of samples with Packard Ultima Gold liquid scintillation counting cocktail. Counting was conducted on a Beckman liquid scintillation counter (LS6500) or Packard TriCarb liquid scintillation counter for 10 minutes per sample. Results (DPM, calculated from an in-built quench curve in the counter) were corrected for background prior to any calculations. The pharmacokinetic parameters were calculated using PK Solutions 2.0 software (Summit Research Services, Ohio, U.S.A.) and are summarised in Table 11 below.", "data": [{"smiles": "CC(C)CCC[C@@H](C)[C@H]1CC[C@H]2[C@@H]3CCC4CC(OCc5cn([C@@H]6O[C@H](COS(=O)(=O)[O-])[C@@H](O[C@H]7O[C@H](COS(=O)(=O)[O-])[C@@H](O[C@H]8O[C@H](COS(=O)(=O)[O-])[C@@H](OS(=O)(=O)[O-])[C@H](OS(=O)(=O)[O-])[C@H]8OS(=O)(=O)[O-])[C@H](OS(=O)(=O)[O-])[C@H]7OS(=O)(=O)[O-])[C@H](OS(=O)(=O)[O-])[C@H]6OS(=O)(=O)[O-])nn5)CC[C@]4(C)[C@H]3CC[C@]12C.[Na+].[Na+].[Na+].[Na+].[Na+].[Na+].[Na+].[Na+].[Na+].[Na+]", "note": "(stereo partly drawn) [Compound 70, 4-(Cholestan-3-yl-oxymethyl)[1,2,3]triazol-1-yl 2,3,4,6-tetra-O-sodium sulfonato-α-D-glucopyranosyl-(1→4)-2,3,6-tri-O-sodium sulfonato-α-D-glucopyranosyl-(1→4)-1-deoxy-2,3,6-tri-O-sodium sulfonato-β-D-glucopyranoside]", "values": [{"measurement": "Half-life (iv)", "result": 10.3, "unit": "h"}]}]}
